Tests used:
[1] = target: T1, Protein arginine N-methyltransferase 7 (Mus musculus, UniProt Q922X9); test: Inhibition of PRMT7 in mouse C2C12 cells assessed as reduction in HSP70 methylation; format: cell-based
T1 sequence (Q922X9 whole entry): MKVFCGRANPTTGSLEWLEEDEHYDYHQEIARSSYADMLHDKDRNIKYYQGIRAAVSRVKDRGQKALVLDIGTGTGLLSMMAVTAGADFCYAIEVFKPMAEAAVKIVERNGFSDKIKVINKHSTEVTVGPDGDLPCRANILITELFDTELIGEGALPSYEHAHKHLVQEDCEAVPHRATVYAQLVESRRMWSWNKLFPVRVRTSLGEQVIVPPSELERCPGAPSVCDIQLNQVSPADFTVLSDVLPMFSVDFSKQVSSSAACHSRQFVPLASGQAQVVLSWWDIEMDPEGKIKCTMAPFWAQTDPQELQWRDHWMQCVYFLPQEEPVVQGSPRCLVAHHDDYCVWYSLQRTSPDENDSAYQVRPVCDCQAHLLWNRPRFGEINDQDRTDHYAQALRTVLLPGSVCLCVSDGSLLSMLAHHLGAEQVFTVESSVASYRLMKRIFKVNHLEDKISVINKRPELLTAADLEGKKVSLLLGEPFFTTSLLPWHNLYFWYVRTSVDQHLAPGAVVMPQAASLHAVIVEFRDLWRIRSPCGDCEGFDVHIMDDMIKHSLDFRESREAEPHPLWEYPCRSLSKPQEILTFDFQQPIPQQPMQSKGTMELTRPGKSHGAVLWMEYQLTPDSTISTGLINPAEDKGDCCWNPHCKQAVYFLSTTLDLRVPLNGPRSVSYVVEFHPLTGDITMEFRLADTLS

ES-2 = test: Inhibition of cell growth in human ES2 cells; format: functional, cell-based
JeKo-1 = test: Inhibition of cell growth in human JeKo-1 cells; format: functional, cell-based
PC-3 = test: Inhibition of cell growth in human PC-3 cells; format: functional, cell-based
[2] = target: T2, Protein arginine N-methyltransferase 7 (Homo sapiens, UniProt Q9NVM4); test: Inhibition of PRMT7 (unknown origin)
T2 sequence (Q9NVM4 whole entry): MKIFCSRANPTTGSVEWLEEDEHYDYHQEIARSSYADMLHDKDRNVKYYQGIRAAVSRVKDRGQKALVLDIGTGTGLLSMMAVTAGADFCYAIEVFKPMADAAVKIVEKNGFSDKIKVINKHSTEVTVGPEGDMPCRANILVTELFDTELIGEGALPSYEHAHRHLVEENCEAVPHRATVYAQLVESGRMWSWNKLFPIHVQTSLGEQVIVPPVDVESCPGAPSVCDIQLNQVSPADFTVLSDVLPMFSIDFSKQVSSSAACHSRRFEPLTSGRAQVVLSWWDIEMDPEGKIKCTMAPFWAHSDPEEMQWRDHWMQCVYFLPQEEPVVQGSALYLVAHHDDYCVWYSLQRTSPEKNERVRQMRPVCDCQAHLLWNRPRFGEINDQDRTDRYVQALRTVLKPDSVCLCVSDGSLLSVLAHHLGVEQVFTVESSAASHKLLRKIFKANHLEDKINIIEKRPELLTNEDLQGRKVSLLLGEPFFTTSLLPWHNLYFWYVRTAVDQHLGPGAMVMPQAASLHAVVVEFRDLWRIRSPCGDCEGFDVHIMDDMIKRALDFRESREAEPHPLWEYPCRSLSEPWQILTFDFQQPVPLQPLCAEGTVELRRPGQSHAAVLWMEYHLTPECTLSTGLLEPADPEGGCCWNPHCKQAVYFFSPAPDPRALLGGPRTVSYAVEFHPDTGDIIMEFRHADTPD

Row | IC50 [1] [nM] | IC50 (PC-3) [nM] | IC50 [2] [nM] | Structure (SMILES) | IC50 (ES-2) [nM] | IC50 (JeKo-1) [nM]
1 | 2400 | – | – | CC1=C(C)C(=O)C(C(C)(C)CC(=O)N(CCCCSC[C@H]2O[C@@H](n3cnc4c(N)ncnc43)[C@H](O)[C@@H]2O)Cc2ccc(-c3ccc(Cl)cc3)cc2)=C(C)C1=O | – | –
2 | – | < 10000 | 2100 | COc1cc(-c2ncc(F)c(Nc3ccc4cc(C)cc(N)c4c3)n2)cc(OC)c1OC | < 10000 | < 10000

From ChEMBL document CHEMBL5512621, “Overview of the development of protein arginine methyltransferase modulators: Achievements and future directions” (Eur J Med Chem, 2024)
